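Five compound concentrations were applied to cells in 96-well plates for 48 hours; endpoints were derived by simple linear interpolation of the resulting dose-response curve. GI50: concentration for 50% inhibition of growth. The concentration for full growth arrest is given as TGI.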
What follows are compounds tested on U251 CNS (assay: DTP human tumour cell line panel, 48 h).

Which GI50 does the source give for `CN1CCN(CCCOc2ccc3nc(Nc4ccc(Cl)c(C(F)(F)F)c4)ccc3c2)CC1` here?
The GI50 was 12.5 µM.

And the TGI?
Its TGI is 26.2 µM.

For `CC(C)n1nc(-c2cc3cc(O)ccc3[nH]2)c2c(N)ncnc21`, which GI50 is on record?
The GI50 was 0.565 µM.

And the TGI?
The TGI was 10.9 µM.

How did the GI50 turn out when `CCCCC(O)(c1ccc(Cl)cc1)C(CN1CCOCC1)c1ccc(Cl)cc1` (stereo not drawn) was run?
Its GI50 is 13.6 µM.

And the TGI?
Its TGI is 27.5 µM.

Which GI50 does the source give for `Cc1cc(C(=O)Nc2ncc(Cc3cccc(C(F)(F)F)c3)s2)c2ccccc2n1` here?
Its GI50 is 2.92 µM.

And the TGI?
Its TGI is > 100 µM.

Which GI50 does the source give for `O=C(N/N=C/c1ccc(Cl)cc1)c1ccc(C(F)(F)F)nc1Nc1cccc(C(F)(F)F)c1` here?
The GI50 was 1.55 µM.

And the TGI?
Its TGI is 10.2 µM.

For `COc1cc2ncnc(Nc3ccc(C)c(O)c3)c2cc1OC`, which GI50 is on record?
Its GI50 is 15.8 µM.

What about the TGI of the same compound?
The TGI was > 25 µM.

`O=C1OC(C(O)CO)C(=O)C1=O` (stereo not drawn) was tested. Which GI50 did it give?
The GI50 was 5090 µM.

And the TGI?
The TGI was > 10000 µM.

`COC(=O)C1=CNC=C(C(=O)OC)C1C1=CC(=O)C(C)=CC1=O` was tested. Which GI50 did it give?
Its GI50 is 16.5 µM.

And the TGI?
Its TGI is 32.1 µM.

What does the source list for `C=C1C(=O)O[C@H]2[C@H]1CC/C(COC(=O)C(=O)c1cn(Cc3ccccc3)c3ccccc13)=C\CC[C@@]1(C)O[C@@H]21`?
GI50: 4.01 µM; TGI: 14.7 µM

`COc1ccc(/C=C/c2ccnc3ccccc23)c(OC)c1` was tested. Which TGI did it give?
Its TGI is > 10 µM.

Which results are given for `Cc1ccc(C(=O)CN(/C=C/C(=O)C(F)(F)F)c2ccc(S(N)(=O)=O)cc2)cc1`?
GI50: 48.4 µM; TGI: > 100 µM

`Clc1nc(Cl)c(Cl)c(-c2ccccc2)n1` was tested. Which TGI did it give?
The TGI was 30.3 µM.

How did the TGI turn out when `COC(C(O)CO)C(O)C(O)C(=O)NNc1ccccc1` (stereo not drawn) was run?
The TGI was > 100 µM.

With `NS(=O)(=O)c1ccc(NC2(C(=O)O)CCCC2)cc1` as the compound, how does the TGI read?
The TGI was > 100 µM.

Which TGI does the source give for `O=C(O)C1OC(n2cc(F)c(=O)[nH]c2=O)CC1O` (stereo not drawn) here?
Its TGI is > 100 µM.

How did the GI50 turn out when `N=C1C(c2nc3ccccc3s2)=C(O)CN1c1cc(C(F)(F)F)ccc1Cl` was run?
The GI50 was 9.55 µM.

And the TGI?
Its TGI is > 100 µM.

Which TGI does the source give for `CC(=O)CSCc1ccccn1` here?
The TGI was > 100 µM.

With `COc1ccccc1CNCCCN1C(=O)c2ccc3c4c(ccc(c24)C1=O)C(=O)N(CCCOCCCCOCCCN)C3=O` as the compound, how does the GI50 read?
Its GI50 is 1.23 µM.

And the TGI?
The TGI was 2.69 µM.

How did the GI50 turn out when `CCOC(=O)[C@@H](N)CCC(=O)N[C@@H](CSCc1ccccc1)C(=O)N[C@@H](C(=O)OCC)c1ccccc1` was run?
Its GI50 is 16.6 µM.

What about the TGI of the same compound?
The TGI was 31.3 µM.

How did the GI50 turn out when `COc1ccc(Nc2c3ccccc3nc3occc23)cc1` was run?
The GI50 was 3.85 µM.

What about the TGI of the same compound?
The TGI was > 100 µM.

For `CC(=O)/C(C)=N/NC(=O)c1ccccc1O`, which GI50 is on record?
Its GI50 is > 100 µM.

And the TGI?
Its TGI is > 100 µM.

Which GI50 does the source give for `CCCCCCCC/C=C/CCCCCCCC(=O)OC[C@H]1O[C@@H](n2ccc(N)nc2=O)C(F)(F)[C@@H]1O` here?
The GI50 was < 0.016 µM.

What about the TGI of the same compound?
Its TGI is 25.3 µM.

With `NS(=O)(=O)c1ccc(N=Nc2c(O)[nH]c3ccc(-c4cnco4)cc23)cc1` as the compound, how does the GI50 read?
The GI50 was > 25 µM.

And the TGI?
Its TGI is > 25 µM.

With `COc1cc2c3c(n(CCCNC(=O)OCC4c5ccccc5-c5ccccc54)c(=O)c2cc1OC)-c1cc2c(cc1/C3=C\CCNC(=O)OCC1c3ccccc3-c3ccccc31)OCO2` as the compound, how does the GI50 read?
Its GI50 is > 17.8 µM.

What about the TGI of the same compound?
The TGI was > 36.7 µM.

How did the TGI turn out when `N#C/C(=C1C=C(Br)/C(=N\O)C=C\1Cl)c1cccc2ccccc12` was run?
Its TGI is 10.7 µM.

With `CN1C(=O)c2cccc3cc([N+](=O)[O-])cc(c23)C1=O` as the compound, how does the TGI read?
The TGI was > 10 µM.

Which TGI does the source give for `CN1c2ccc(Cl)cc2C(=O)NC1c1ccc([N+](=O)[O-])s1` (stereo not drawn) here?
Its TGI is 32.5 µM.

What does the source list for `c1cc(CNC23CC4CC(CC(C4)C2)C3)cc(C[N+](Cc2cccc(CNC34CC5CC(CC(C5)C3)C4)c2)(Cc2cccc(CNC34CC5CC(CC(C5)C3)C4)c2)Cc2cccc(CNC34CC5CC(CC(C5)C3)C4)c2)c1` (stereo not drawn)?
GI50: 4.68 µM; TGI: 11.3 µM

Each compound was assayed on NCI-H522 lung (assay: DTP human tumour cell line panel, 48 h).

What does the source list for `CN1CCN(CCCOc2ccc3nc(Nc4ccc(Cl)c(C(F)(F)F)c4)ccc3c2)CC1`?
GI50: 14.1 µM; TGI: 28.1 µM

What does the source list for `CC(C)n1nc(-c2cc3cc(O)ccc3[nH]2)c2c(N)ncnc21`?
GI50: 0.0974 µM; TGI: 2.02 µM

How did the GI50 turn out when `CCCCC(O)(c1ccc(Cl)cc1)C(CN1CCOCC1)c1ccc(Cl)cc1` (stereo not drawn) was run?
Its GI50 is 7.26 µM.

And the TGI?
The TGI was 21.7 µM.

How did the GI50 turn out when `Cc1cc(C(=O)Nc2ncc(Cc3cccc(C(F)(F)F)c3)s2)c2ccccc2n1` was run?
Its GI50 is 2.33 µM.

What about the TGI of the same compound?
The TGI was > 100 µM.

Which GI50 does the source give for `O=C(N/N=C/c1ccc(Cl)cc1)c1ccc(C(F)(F)F)nc1Nc1cccc(C(F)(F)F)c1` here?
Its GI50 is 2.8 µM.

And the TGI?
The TGI was 10.7 µM.

Which GI50 does the source give for `COc1cc2ncnc(Nc3ccc(C)c(O)c3)c2cc1OC` here?
Its GI50 is 2.83 µM.

What about the TGI of the same compound?
The TGI was > 18.6 µM.

What does the source list for `O=C1OC(C(O)CO)C(=O)C1=O` (stereo not drawn)?
GI50: 1850 µM; TGI: 3460 µM

`COC(=O)C1=CNC=C(C(=O)OC)C1C1=CC(=O)C(C)=CC1=O` was tested. Which GI50 did it give?
The GI50 was 19.8 µM.

And the TGI?
Its TGI is 47.2 µM.

What does the source list for `C=C1C(=O)O[C@H]2[C@H]1CC/C(COC(=O)C(=O)c1cn(Cc3ccccc3)c3ccccc13)=C\CC[C@@]1(C)O[C@@H]21`?
GI50: 1.63 µM; TGI: 3.42 µM

With `COc1ccc(/C=C/c2ccnc3ccccc23)c(OC)c1` as the compound, how does the TGI read?
Its TGI is > 10 µM.

How did the GI50 turn out when `Cc1ccc(C(=O)CN(/C=C/C(=O)C(F)(F)F)c2ccc(S(N)(=O)=O)cc2)cc1` was run?
Its GI50 is 53.8 µM.

And the TGI?
The TGI was > 100 µM.

`Clc1nc(Cl)c(Cl)c(-c2ccccc2)n1` was tested. Which TGI did it give?
The TGI was 3.2 µM.

For `COC(C(O)CO)C(O)C(O)C(=O)NNc1ccccc1` (stereo not drawn), which TGI is on record?
Its TGI is > 100 µM.

How did the TGI turn out when `NS(=O)(=O)c1ccc(NC2(C(=O)O)CCCC2)cc1` was run?
Its TGI is > 100 µM.

`O=C(O)C1OC(n2cc(F)c(=O)[nH]c2=O)CC1O` (stereo not drawn) was tested. Which TGI did it give?
Its TGI is > 100 µM.

`N=C1C(c2nc3ccccc3s2)=C(O)CN1c1cc(C(F)(F)F)ccc1Cl` was tested. Which GI50 did it give?
Its GI50 is 9.49 µM.

And the TGI?
Its TGI is > 100 µM.

For `CC(=O)CSCc1ccccn1`, which TGI is on record?
The TGI was 45.3 µM.

Which GI50 does the source give for `COc1ccccc1CNCCCN1C(=O)c2ccc3c4c(ccc(c24)C1=O)C(=O)N(CCCOCCCCOCCCN)C3=O` here?
Its GI50 is 0.802 µM.

What about the TGI of the same compound?
The TGI was 2.18 µM.

`CCOC(=O)[C@@H](N)CCC(=O)N[C@@H](CSCc1ccccc1)C(=O)N[C@@H](C(=O)OCC)c1ccccc1` was tested. Which GI50 did it give?
The GI50 was 16.2 µM.

And the TGI?
Its TGI is 32.4 µM.

Which results are given for `COc1ccc(Nc2c3ccccc3nc3occc23)cc1`?
GI50: 2.35 µM; TGI: > 100 µM

With `CC(=O)/C(C)=N/NC(=O)c1ccccc1O` as the compound, how does the TGI read?
The TGI was > 100 µM.

Which results are given for `CCCCCCCC/C=C/CCCCCCCC(=O)OC[C@H]1O[C@@H](n2ccc(N)nc2=O)C(F)(F)[C@@H]1O`?
GI50: 0.201 µM; TGI: > 100 µM

Which results are given for `NS(=O)(=O)c1ccc(N=Nc2c(O)[nH]c3ccc(-c4cnco4)cc23)cc1`?
GI50: > 6.68 µM; TGI: > 25 µM

With `COc1cc2c3c(n(CCCNC(=O)OCC4c5ccccc5-c5ccccc54)c(=O)c2cc1OC)-c1cc2c(cc1/C3=C\CCNC(=O)OCC1c3ccccc3-c3ccccc31)OCO2` as the compound, how does the GI50 read?
Its GI50 is > 11 µM.

And the TGI?
Its TGI is > 23.6 µM.

Which TGI does the source give for `N#C/C(=C1C=C(Br)/C(=N\O)C=C\1Cl)c1cccc2ccccc12` here?
Its TGI is 6.47 µM.

For `CN1C(=O)c2cccc3cc([N+](=O)[O-])cc(c23)C1=O`, which TGI is on record?
The TGI was > 10 µM.

How did the GI50 turn out when `c1cc(CNC23CC4CC(CC(C4)C2)C3)cc(C[N+](Cc2cccc(CNC34CC5CC(CC(C5)C3)C4)c2)(Cc2cccc(CNC34CC5CC(CC(C5)C3)C4)c2)Cc2cccc(CNC34CC5CC(CC(C5)C3)C4)c2)c1` (stereo not drawn) was run?
Its GI50 is 3.06 µM.

What about the TGI of the same compound?
The TGI was 6.49 µM.

What follows are compounds tested on HS 578T breast (assay: DTP human tumour cell line panel, 48 h).

For `CN1CCN(CCCOc2ccc3nc(Nc4ccc(Cl)c(C(F)(F)F)c4)ccc3c2)CC1`, which GI50 is on record?
Its GI50 is 12.5 µM.

What about the TGI of the same compound?
The TGI was 32.1 µM.

What does the source list for `CC(C)n1nc(-c2cc3cc(O)ccc3[nH]2)c2c(N)ncnc21`?
GI50: 0.109 µM; TGI: 0.503 µM

Which results are given for `CCCCC(O)(c1ccc(Cl)cc1)C(CN1CCOCC1)c1ccc(Cl)cc1` (stereo not drawn)?
GI50: 16.8 µM; TGI: 46.5 µM

`Cc1cc(C(=O)Nc2ncc(Cc3cccc(C(F)(F)F)c3)s2)c2ccccc2n1` was tested. Which GI50 did it give?
The GI50 was 2.41 µM.

What about the TGI of the same compound?
Its TGI is > 100 µM.

Which results are given for `O=C(N/N=C/c1ccc(Cl)cc1)c1ccc(C(F)(F)F)nc1Nc1cccc(C(F)(F)F)c1`?
GI50: 2.98 µM; TGI: 10.2 µM

Which results are given for `COc1cc2ncnc(Nc3ccc(C)c(O)c3)c2cc1OC`?
GI50: 5.36 µM; TGI: 18.8 µM

With `O=C1OC(C(O)CO)C(=O)C1=O` (stereo not drawn) as the compound, how does the GI50 read?
The GI50 was 3250 µM.

What about the TGI of the same compound?
Its TGI is 9940 µM.

For `COC(=O)C1=CNC=C(C(=O)OC)C1C1=CC(=O)C(C)=CC1=O`, which GI50 is on record?
The GI50 was 25 µM.

And the TGI?
Its TGI is 66.5 µM.

What does the source list for `C=C1C(=O)O[C@H]2[C@H]1CC/C(COC(=O)C(=O)c1cn(Cc3ccccc3)c3ccccc13)=C\CC[C@@]1(C)O[C@@H]21`?
GI50: 3.35 µM; TGI: 29.9 µM

For `COc1ccc(/C=C/c2ccnc3ccccc23)c(OC)c1`, which TGI is on record?
Its TGI is > 10 µM.

`Cc1ccc(C(=O)CN(/C=C/C(=O)C(F)(F)F)c2ccc(S(N)(=O)=O)cc2)cc1` was tested. Which GI50 did it give?
The GI50 was 55.3 µM.

And the TGI?
Its TGI is > 100 µM.

— PubChem BioAssay (NCI)
